Reference: paper PMC8538004, “Identification of a Novel Neuropeptide S Receptor Antagonist Scaffold Based on the SHA-68 Core” (Pharmaceuticals, 2021)
Entries after “also recorded” stand apart in the source; their conditions may differ.

How the values were obtained:
[1] = biological target: T1, human NPSR-107I (Homo sapiens, UniProt Q6W5P4, N107I); experiment: Ca+2 mobilization assay (apparent Ke against NPS); assay type: cell-based
T1 construct: expressed in transfected cells
T1 sequence (Q6W5P4 1-371 N107I): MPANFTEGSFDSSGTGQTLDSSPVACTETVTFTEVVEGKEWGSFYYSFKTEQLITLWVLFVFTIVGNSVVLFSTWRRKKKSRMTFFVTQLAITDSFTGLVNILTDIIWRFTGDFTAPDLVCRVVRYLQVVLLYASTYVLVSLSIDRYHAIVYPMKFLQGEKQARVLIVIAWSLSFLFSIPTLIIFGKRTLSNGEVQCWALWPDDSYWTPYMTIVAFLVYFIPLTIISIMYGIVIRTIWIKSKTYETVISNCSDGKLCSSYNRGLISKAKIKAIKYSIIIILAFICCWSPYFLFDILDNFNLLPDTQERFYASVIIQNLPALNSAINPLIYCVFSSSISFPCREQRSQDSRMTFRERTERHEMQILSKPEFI
Protocol: A stable cell line overexpressing the human NPSR-107I was created in CHO-Gαq16 cells (RD-HGA16, Molecular Devices), as previously described. Briefly, CHO-Gαq16 cells were transfected with pcDNA 3.1 human NPSR-107I using Lipofectamine reagent. Transfected cells were plated into 10 cm^2 dishes 24 h post-transfection and were selected using Geneticin. After 2 weeks, individual clones were selected, grown to confluence, and screened in a functional 96-well calcium mobilization assay that measured the response to NPS (100 nM final). […] A final working clone was chosen for all subsequent studies based on NPS potency and the calcium mobilization signal window. CHO-Gα16-hNPSR-107I cells were cultured in Ham’s F12 media supplemented with 10% FBS, 100 units/mL penicillin, 100 μg/mL streptomycin, 200 μg/mL hygromycin, and 400 μg/mL geneticin. Media were purchased from HyClone (GE Life Sciences); FBS, penicillin/streptomycin, hygromycin, and geneticin were purchased from Invitrogen (Thermo Scientific). The day before the assay, cells were plated into 96-well black-walled assay plates at 25,000–40,000 cells/well in growth medium without selection antibiotics. Cells were incubated overnight at 37 °C, 5% CO2. The FLIPR Calcium 5 assay kit (Molecular Devices) was used according to the manufacturer’s instructions with minor modifications. Briefly, reconstituted dye was diluted in pre-warmed assay buffer (HBSS, 20 mM HEPES, 2.5 mM probenecid, pH 7.4 at 37 °C). Growth medium was removed, and the cells were gently washed with assay buffer. Calcium 5 dye was added to the cells and the plate was incubated for 45 min at 37 °C, 5% CO2. A single concentration of test compound and 10-point concentration–response curves of NPS (ranging from 100 nM to 1 pM) were prepared at 10× the desired final concentration. Cells were pretreated with the test compound or vehicle in a final concentration of 0.25% BSA/1% DMSO for 15 min at 37 °C. Assay plates were read with a FlexStation II instrument (excitation at 485 nm, detection at 525 nm, Molecular Devices). Calcium-mediated changes in fluorescence were monitored every 1.5 s over a 90 s time period. NPS was added during the read and the maximum kinetic […] (SoftMax [Max-Min], Molecular Devices) in relative fluorescent units (RFU) was measured. Data were fitted to a three-parameter logistic curve to generate EC50 values (GraphPad Prism 6.0). Antagonism was quantified by measuring the ratio of equi-active concentrations of agonist measured in the presence or absence of the antagonist. Apparent Ke values were calculated using the equation Ke = [L]/((EC50^+/EC50^−) − 1), where [L] is the concentration of test compound, EC50^+ is the EC50 of NPS with test compound, and EC50^– is the EC50 of NPS alone. Ke values were considered valid when the EC50^+/EC50^− ratio was at least 4. HBSS and HEPES were purchased from Gibco (Thermo Scientific); probenecid, BSA, and DMSO were purchased from Sigma-Aldrich.

[2] = tested on: NPS-mediated hyperlocomotion; experiment: NPS-stimulated locomotor activity (open field); assay type: in vivo, C57/Bl6 mice
Protocol: Male mice between 8 and 12 weeks of age were used for all tests. C57/Bl6 were obtained from the former NCI colony maintained by Charles River. Animals were housed with ad libitum access to food and water on a 12:12 h light:dark cycle with lights on at 06:00. Experiments were conducted between the hours of 09:00 and 15:00. All experiments were approved by the Institutional Animal Care and Use Committee of the State University of New York at Buffalo (PMY09073N) and conducted in accordance with the National Institutes of Health Guide for the Care and Use of Laboratory animals.
Mice were anesthetized using ketamine (100 mg/kg) and xylazine (5 mg/kg) and were secured to a stereotaxic frame once the appropriate plane of anesthesia was reached. An incision was made in order to expose the skull. […]
Open-field testing was conducted in clear plexiglass cages measuring 40 × 40 cm^2 interfaced by a grid array of infrared beams connected to a computer system which tracked and quantified the animals’ location and movements (OMNITECH Instruments, Columbus, OH, USA). […]
Statistical analyses were performed by ANOVA with Tukey’s multiple comparisons test analysis within GraphPad Prism 8 software (GraphPad Software, San Diego, CA, USA). All results are expressed as mean values ± SEM.

CC(C)CC1(c2ccccc2)OC(=O)C2=C1CN(C(=O)NCc1ccccc1)CC2 (single isomer, unassigned; (+)) [Compound 14b, (+) N-benzyl-3-(2-methylpropyl)-1-oxo-3-phenyl-1H,3H,4H,5H,6H,7H-furo[3,4-c]pyridine-5-carboxamide] was tested, and the “Shift of the agonist activity of NPS” value ([1]; 3 µM concentration, calcium mobilization assay) was “significant right shift”, the Kb ([1]; Calcium Mobilization, CHO-Gα16-hNPSR-107I cells, shift of NPS EC50) was 71.4 nM and the “Potency relative to SHA-68” value ([1]; in vitro antagonist potency) was “approximately sevenfold less potent”. For the same compound, the “Effect on NPS-mediated hyperlocomotion” value ([2]; 3 mg/kg i.p. pretreatment, NPS 0.3 nmol ICV, total distance first 10 min, Veh-NPS vs. 14b-NPS p = 0.0389) was “attenuated; also recorded: able to block; also recorded: sufficient to significantly decrease; also recorded: significantly decreased” and the “Effect on locomotion on its own” value ([2]; 3 mg/kg i.p., aCSF ICV, Veh-aCSF vs. 14b-aCSF p = 0.8199) was “did not decrease locomotion”.
